From patent US9951065B2 (Gilead Sciences, Inc., priority 2015, dated 2018)

Biological target: T1, IDO1 (Homo sapiens, UniProt P14902)
T1 construct: HeLa cells were treated with a test compound in the presence of IFNγ, which induces IDO1 expression; host or cells: H1-HeLa cells, IDO1 induced with IFNγ
Assay: Cell-based (HeLa) assay for measurement of IDO1 inhibition (kynurenine levels in supernatant after IFNγ induction)
Details: HeLa cells, IFNγ-induced IDO1, kynurenine in supernatant after 48 hour incubation; geometric mean of a minimum of four determinations
How it was run: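 HeLa cells, 1,250 per well, treated with compound (0.5% DMSO final) plus IFNγ to induce IDO1, for 48 h. Supernatant kynurenine measured by TCA hydrolysis at 60 °C, then p-dimethylaminobenzaldehyde, absorbance 480 nm. EC50 from a four-parameter fit normalized to −/+IFNγ controls; geometric mean of at least four runs.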

T1 sequence (P14902 whole entry): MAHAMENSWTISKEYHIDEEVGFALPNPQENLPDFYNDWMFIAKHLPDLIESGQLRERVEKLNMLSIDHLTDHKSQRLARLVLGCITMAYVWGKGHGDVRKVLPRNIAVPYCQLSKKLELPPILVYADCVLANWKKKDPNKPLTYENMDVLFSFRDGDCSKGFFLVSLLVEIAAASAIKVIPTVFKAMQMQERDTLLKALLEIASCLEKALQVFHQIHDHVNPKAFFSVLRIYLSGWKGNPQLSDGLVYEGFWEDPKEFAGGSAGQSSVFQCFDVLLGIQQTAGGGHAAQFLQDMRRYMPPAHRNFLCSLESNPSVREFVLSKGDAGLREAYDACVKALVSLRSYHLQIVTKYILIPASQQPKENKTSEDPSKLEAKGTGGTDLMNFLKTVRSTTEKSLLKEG

| EC50 [µM] | SMILES |
| --- | --- |
| 2.4 | O/N=C(\Nc1ccc(F)c(Cl)c1)c1ccnc2nc(CNc3ccccc3)[nH]c12 [Example 128, N-(3-Chloro-4-fluorophenyl)-N′-hydroxy-2-((phenylamino)methyl)-1H-imidazo[4,5-b]pyridine-7-carboximidamide] |
| 1.97 | COc1ccc(CNCCc2nc3nccc(/C(=N/O)Nc4ccc(F)c(Cl)c4)c3[nH]2)c(OC)c1 [Example 274, N-(3-chloro-4-fluorophenyl)-2-(2-((2,4-dimethoxybenzyl)amino)ethyl)-N′-hydroxy-1H-imidazo[4,5-b]pyridine-7-carboximidamide] |
| 9.76 | CC(=O)NCc1nc2nccc(/C(=N/O)Nc3ccc(F)c(Cl)c3)c2[nH]1 [Example 145, N-((7-(N-(3-Chloro-4-fluorophenyl)-N′-hydroxycarbamimidoyl)-1H-imidazo[4,5-b]pyridin-2-yl)methyl)acetamide] |
| 3.24 | O/N=C(\Nc1ccc(F)c(Cl)c1)c1ccnc2nc(CCN3CCC(O)CC3)[nH]c12 [Example 262, N-(3-chloro-4-fluorophenyl)-N′-hydroxy-2-(2-(4-hydroxypiperidin-1-yl)ethyl)-1H-imidazo[4,5-b]pyridine-7-carboximidamide] |
| 2.72 | O/N=C(\Nc1ccc(F)c(Cl)c1)c1ccnc2nc(NCCN3CCCC3)[nH]c12 [Example 283, N-(3-chloro-4-fluorophenyl)-N′-hydroxy-2-((2-(pyrrolidin-1-yl)ethyl)amino)-1H-imidazo[4,5-b]pyridine-7-carboximidamide] |
| 5 | NC1=NCCN1CCc1nc2nccc(/C(=N/O)Nc3ccc(F)c(Cl)c3)c2[nH]1 [Example 209, 2-(2-(2-amino-4,5-dihydro-1H-imidazol-1-yl)ethyl)-N-(3-chloro-4-fluorophenyl)-N′-hydroxy-1H-imidazo[4,5-b]pyridine-7-carboximidamide] |
| 0.291 | CN(CCNc1nc2nccc(/C(=N/O)Nc3ccc(F)c(Cl)c3)c2[nH]1)C1CC1 [Example 231, N-(3-chloro-4-fluorophenyl)-2-((2-(cyclopropyl(methyl)amino)ethyl)amino)-N′-hydroxy-1H-imidazo[4,5-b]pyridine-7-carboximidamide] |
| > 10 | O=S1(=O)CCN(CCNc2nc3nccc(/C(=N/O)Nc4ccc(F)c(Cl)c4)c3[nH]2)CC1 [Example 218, N-(3-chloro-4-fluorophenyl)-2-((2-(1,1-dioxidothiomorpholino)ethyl)amino)-N′-hydroxy-1H-imidazo[4,5-b]pyridine-7-carboximidamide] |
| > 10 | COC(=O)NCCc1nc2nccc(/C(=N/O)Nc3ccc(F)c(Cl)c3)c2[nH]1 [Example 273, Methyl (2-(7-(N-(3-chloro-4-fluorophenyl)-N′-hydroxycarbamimidoyl)-1H-imidazo[4,5-b]pyridin-2-yl)ethyl)carbamate] |
| 8.97 | CS(=O)(=O)NCc1nc2nccc(/C(=N/O)Nc3ccc(F)c(Cl)c3)c2[nH]1 [Example 181, N-(3-Chloro-4-fluorophenyl)-N′-hydroxy-2-(methylsulfonamidomethyl)-1H-imidazo[4,5-b]pyridine-7-carboximidamide] |
| 1.32 | COCCCNCc1nc2c(/C(=N/O)Nc3ccc(F)c(Cl)c3)cc(F)c(F)c2[nH]1 [Example 45, N-(3-Chloro-4-fluorophenyl)-6,7-difluoro-N′-hydroxy-2-(((3-methoxypropyl)amino)methyl)-1H-benzo[d]imidazole-4-carboximidamide] |
| 2.19 | O/N=C(\Nc1ccc(F)c(Cl)c1)c1ccnc2nc(NCC(F)F)[nH]c12 [Example 225, N-(3-chloro-4-fluorophenyl)-2-((2,2-difluoroethyl)amino)-N′-hydroxy-1H-imidazo[4,5-b]pyridine-7-carboximidamide] |
| 4.82 | O=C1CCCN1CCNc1nc2nccc(/C(=N/O)Nc3ccc(F)c(Cl)c3)c2[nH]1 [Example 235, N-(3-chloro-4-fluorophenyl)-N′-hydroxy-2-((2-(2-oxopyrrolidin-1-yl)ethyl)amino)-1H-imidazo[4,5-b]pyridine-7-carboximidamide] |
| 1.26 | COCCN1CCC(Nc2nc3nccc(/C(=N/O)Nc4ccc(F)c(Cl)c4)c3[nH]2)C1 (centres unmarked) [Example 281, N-(3-chloro-4-fluorophenyl)-N′-hydroxy-2-((1-(2-methoxyethyl)pyrrolidin-3-yl)amino)-1H-imidazo[4,5-b]pyridine-7-carboximidamide] |

More lines, now with the values behind:

| SMILES | EC50 [µM] |
| --- | --- |
| O/N=C(\Nc1cc(Cl)ccc1Cl)c1ccnc2nc[nH]c12 [Example 76, N-(2,5-Dichlorophenyl)-N′-hydroxy-1H-imidazo[4,5-b]pyridine-7-carboximidamide] | 0.769 |
| O/N=C(\Nc1ccc(F)c(Cl)c1)c1cccc2nc[nH]c12 [Example 8, N-(3-Chloro-4-fluorophenyl)-N′-hydroxy-1H-benzo[d]imidazole-7-carboximidamide] | 1.79 |
| O/N=C(\Nc1ccc(F)c(Cl)c1)c1ccc(Cl)c2nc[nH]c12 [Example 6, 4-Chloro-N-(3-chloro-4-fluorophenyl)-N′-hydroxy-1H-benzo[d]imidazole-7-carboximidamide] | 0.793 |
| Cn1nccc1CNc1nc2c(F)c(F)cc(/C(=N/O)Nc3ccc(F)c(Cl)c3)c2[nH]1 [Example 299, N-(3-chloro-4-fluorophenyl)-4,5-difluoro-N′-hydroxy-2-(((1-methyl-1H-pyrazol-5-yl)methyl)amino)-1H-benzo[d]imidazole-7-carboximidamide] | 3.44 |
| O/N=C(\Nc1cccc(Br)c1)c1ccnc2nc[nH]c12 [Example 80, N-(3-Bromophenyl)-N′-hydroxy-1H-imidazo[4,5-b]pyridine-7-carboximidamide] | 0.111 |
| COCCNc1nc2c(F)c(F)cc(/C(=N/O)Nc3ccc(F)c(Cl)c3)c2[nH]1 [Example 40, N-(3-Chloro-4-fluorophenyl)-4,5-difluoro-N′-hydroxy-2-((2-methoxyethyl)amino)-1H-benzo[d]imidazole-7-carboximidamide] | 1.52 |
| Nc1nc2c(F)ccc(/C(=N/O)Nc3cccc(Br)c3)c2[nH]1 [Example 18, 2-Amino-N-(3-bromophenyl)-4-fluoro-N′-hydroxy-1H-benzo[d]imidazole-7-carboximidamide] | 0.312 |

Same assay, conditions: HeLa cells, IFNγ-induced IDO1, kynurenine in supernatant, 48 hour incubation; geometric mean of a minimum of four determinations

| EC50 [µM] | SMILES |
| --- | --- |
| 0.668 | CC1CN(C(C)CNc2nc3nccc(/C(=N/O)Nc4ccc(F)c(Cl)c4)c3[nH]2)CC(C)O1 (centres unmarked) [Example 483, N-(3-chloro-4-fluorophenyl)-2-((2-(2,6-dimethylmorpholino)propyl)amino)-N′-hydroxy-1H-imidazo[4,5-b]pyridine-7-carboximidamide] |
| 8.49 | O/N=C(\Nc1ccc(F)c(Cl)c1)c1cc(F)c(F)c2nc(NCc3ccccn3)[nH]c12 [Example 342, N-(3-chloro-4-fluorophenyl)-4,5-difluoro-N′-hydroxy-2-((pyridin-2-ylmethyl)amino)-1H-benzo[d]imidazole-7-carboximidamide] |

Continued, molecule first:

| SMILES | EC50 [µM] |
| --- | --- |
| N[C@@H]1CCCC[C@@H]1Nc1nc2c(F)c(F)cc(/C(=N/O)Nc3ccc(F)c(Cl)c3)c2[nH]1 [Example 474, 2-(((1S,2R)-2-aminocyclohexyl)amino)-N-(3-chloro-4-fluorophenyl)-4,5-difluoro-N′-hydroxy-1H-benzo[d]imidazole-7-carboximidamide] | 7.58 |
| CN(C)C1(CNc2nc3c(F)c(F)cc(/C(=N/O)Nc4ccc(F)c(Cl)c4)c3[nH]2)CCCC1 [Example 438, N-(3-chloro-4-fluorophenyl)-2-(((1-(dimethylamino)cyclopentyl)methyl)amino)-4,5-difluoro-N′-hydroxy-1H-benzo[d]imidazole-7-carboximidamide] | 0.838 |
| CN(C)CCNc1nc2c(F)ccc(/C(=N/O)Nc3ccc(F)c(Br)c3)c2[nH]1 [Example 382, N-(3-bromo-4-fluorophenyl)-2-((2-(dimethylamino)ethyl)amino)-4-fluoro-N′-hydroxy-1H-benzo[d]imidazole-7-carboximidamide] | 0.608 |
| CCNC(=O)NCCNc1nc2c(F)c(F)cc(/C(=N/O)Nc3ccc(F)c(Cl)c3)c2[nH]1 [Example 341, N-(3-chloro-4-fluorophenyl)-2-((2-(3-ethylureido)ethyl)amino)-4,5-difluoro-N′-hydroxy-1H-benzo[d]imidazole-7-carboximidamide] | > 10 |
| CN1CC(N)[C@H](Nc2nc3c(F)c(F)cc(/C(=N/O)Nc4ccc(F)c(Cl)c4)c3[nH]2)C1 (stereo partly drawn) [Example 435, 2-(((3R)-4-amino-1-methylpyrrolidin-3-yl)amino)-N-(3-chloro-4-fluorophenyl)-4,5-difluoro-N′-hydroxy-1H-benzo[d]imidazole-7-carboximidamide] | 1.81 |
| CN(C)CCNc1nc2c(F)c(F)cc(/C(=N/O)Nc3cccc(Br)c3)c2[nH]1 [Example 430, N-(3-bromophenyl)-2-((2-(dimethylamino)ethyl)amino)-4,5-difluoro-N′-hydroxy-1H-benzo[d]imidazole-7-carboximidamide] | 0.18 |
| CN(C(=NO)c1ccnc2nc[nH]c12)c1ccc(F)c(Cl)c1 [Example 369, N-(3-chloro-4-fluorophenyl)-N′-hydroxy-N-methyl-1H-imidazo[4,5-b]pyridine-7-carboximidamide] | > 10 |
| CS(=O)(=O)NCCNc1nc2c(F)c(F)cc(/C(=N/O)Nc3ccc(F)c(Cl)c3)c2[nH]1 [Example 335, N-(3-chloro-4-fluorophenyl)-4,5-difluoro-N′-hydroxy-2-((2-(methylsulfonamido)ethyl)amino)-1H-benzo[d]imidazole-7-carboximidamide] | > 10 |
| O/N=C(\Nc1ccc(F)c(Cl)c1)c1cc(F)c(F)c2nc(NCCN3CCC[C@H]3C(F)(F)F)[nH]c12 [Example 470, (S)-N-(3-chloro-4-fluorophenyl)-4,5-difluoro-N′-hydroxy-2-((2-(2-(trifluoromethyl)pyrrolidin-1-yl)ethyl)amino)-1H-benzo[d]imidazole-7-carboximidamide] | 4.2 |
